Assays:
[1] = tested on: reserpine-induced catatonia; experiment: Inhibition of reserpine-induced catatonia; type: in vivo, rat (male, OFA strain); conditions: for Inhibition of reserpine-induced catatonia: 30 min before reserpine
Method: 1. Inhibition of reserpine-induced catatonia
After sufficient doses of reserpine have been administered to the rat, a series of symptoms occur, more particularly ptosis, catatonia and a drop in central temperature. These symptoms are caused by the depletion of the intragranular reserve pool of boigenetic amines at the synaptic terminals.
An oral dose of the compound to be studied in aqueous solution was administered to batches of 10 male rats of the OFA strain weighing about 150 to 200 g. Thirty minutes later a dose of 5 mg/kg of reserpine was given by intraperitoneal route. Three hours after the injection of reserpine, the animals were suspended by the four paws to a horizontally stretched wire fixed at 15 cm from the ground. The catatonic animals were those which maintained the position so given for at least 30 seconds. […] The maximum score was therefore 10 per batch. An identical trial was undertaken with control animals which received reserpine but none of the compounds being studied.

[2] = tested on: neuroleptic-induced catatonia; experiment: Inhibition of neuroleptic-induced catatonia (prochlorperazine); type: in vivo, rat (male, OFA strain); conditions: for Inhibition of the neuroleptic-induced catatonia: 30 min before prochlorperazine; for activity compared with amantadine, neuroleptic-induced catatonia: versus amantadine
Method: 2. Inhibition of neuroleptic-induced catatonia
The blocking of dopaminergic receptors by neuroleptics in the extra-pyramidal system induces catatonia in the rat. Catatonia is differentiated from sedative properties by means of the test used hereabove for reserpine-induced catatonia. The same system of scoring was also employed in the present case.
An oral dose of the compound to be studied in aqueous solution was administered to batches of 10 male rats of the OFA strain weighing about 150 to 200 g. […] Three hours after the injection of this latter compound, catatonia was measured. An identical trial was also carried out with control animals which received prochlorperazine but none of the compounds under study.
The scoring system, used was that given hereabove in Table I.

[3] = tested on: isolated duodenum of the rat; experiment: MAGNUS test: inhibition of acetylcholine spasm (cholinolytic / spasmolytic activity in vitro)
Source text: This test consists in determining the dose of acetylcholine which, when added to the bath, provokes spasm of the isolated duodenum of the rat. The next step consists in determining the dose of the compound under study which, when added to the bath 30 seconds before the acetylcholine, reduces the spasm.

Q: Which results are given for `C=CCC(N)(CC=C)CC=C` [Compound 11, 1,1-Di-(2-propen-1-yl)-3-buten-1-ylamine]?
A: Inhibition of reserpine-induced catatonia ([1]; 20 mg/kg oral): 1 (20 to 30% inhibition of catatonia in comparison with the controls (namely a score of 7 to 8 per studied batch)); Inhibition of the neuroleptic-induced catatonia ([2]; 20 mg/kg oral): 1 (20 to 30% inhibition of catatonia in comparison with the controls (namely a score of 7 to 8 per studied batch))

Q: Which results are given for `CCCCC(C)CC(C)(C)N` (stereo not drawn) [Compound 13, 1,1,3-Trimethyl-n-heptylamine]?
A: Inhibition of reserpine-induced catatonia ([1]; 25 mg/kg oral): 1 (20 to 30% inhibition of catatonia in comparison with the controls (namely a score of 7 to 8 per studied batch)); Inhibition of the neuroleptic-induced catatonia ([2]; 50 mg/kg oral): 1 (20 to 30% inhibition of catatonia in comparison with the controls (namely a score of 7 to 8 per studied batch))

Q: Which “Inhibition of reserpine-induced catatonia” value ([1]; 20 mg/kg oral) does the source give for `CCCC(N)(CCC)CC(C)C` [Compound 5, 1-n-Propyl-1-isobutyl-n-butylamine] here?
A: 2 (50% inhibition of catationia in comprison with the controls (namely a score of 5 per studied batch))

Q: And the “Inhibition of the neuroleptic-induced catatonia” value ([2]; 20 mg/kg oral)?
A: 4 (100% inhibition of catatonia in comparison with the controls (namely a score of 0 per studied batch))

Q: And the “activity compared with amantadine, neuroleptic-induced catatonia” value [2]?
A: five times more active than amantadine

Q: `CCC(C)(C)N` [Compound 16, 1,1-Dimethyl-n-propylamine] was tested. Which “Inhibition of reserpine-induced catatonia” value ([1]; 50 mg/kg oral) did it give?
A: 1 (20 to 30% inhibition of catatonia in comparison with the controls (namely a score of 7 to 8 per studied batch))

Q: What about the “Inhibition of the neuroleptic-induced catatonia” value ([2]; 10 mg/kg oral) of the same compound?
A: 1 (20 to 30% inhibition of catatonia in comparison with the controls (namely a score of 7 to 8 per studied batch))

Q: For `CN1[C@@H]2CC[C@H]1C[C@@H](OC(=O)C(CO)c1ccccc1)C2` (stereo partly drawn) [Atropine, reference compound], which “% of inhibition of the spasm” value ([3]; 0.1 × 10^-6 g/ml of bath) is on record?
A: 45%

Q: What about the “% of inhibition of the spasm” value ([3]; 0.2 × 10^-6 g/ml of bath) of the same compound?
A: 100%

Q: Which “Inhibition of reserpine-induced catatonia” value ([1]; 12 mg/kg oral) does the source give for `CCCC(N)(CC(C)C)CC(C)C` [Compound 18, 1,1-Diisobutyl-n-butylamine] here?
A: 2 (50% inhibition of catationia in comprison with the controls (namely a score of 5 per studied batch))

Q: What about the “Inhibition of the neuroleptic-induced catatonia” value ([2]; 12 mg/kg oral) of the same compound?
A: 1 (20 to 30% inhibition of catatonia in comparison with the controls (namely a score of 7 to 8 per studied batch))

Q: For `C#CC(N)(CCC)CCC` [Compound 21, 1,1-Di-n-propyl-2-propyn-1-ylamine], which “Inhibition of reserpine-induced catatonia” value ([1]; 30 mg/kg oral) is on record?
A: 2 (50% inhibition of catationia in comprison with the controls (namely a score of 5 per studied batch))

Q: And the “Inhibition of the neuroleptic-induced catatonia” value ([2]; 30 mg/kg oral)?
A: 1 (20 to 30% inhibition of catatonia in comparison with the controls (namely a score of 7 to 8 per studied batch))

Q: Which results are given for `C#CCC(N)(CCC)CCC` [Compound 26, 1,1-Di-n-propyl-3-butyn-1-ylamine]?
A: Inhibition of reserpine-induced catatonia ([1]; 30 mg/kg oral): 1 (20 to 30% inhibition of catatonia in comparison with the controls (namely a score of 7 to 8 per studied batch)); Inhibition of the neuroleptic-induced catatonia ([2]; 30 mg/kg oral): 4 (100% inhibition of catatonia in comparison with the controls (namely a score of 0 per studied batch))

Q: Which “Inhibition of reserpine-induced catatonia” value ([1]; 6 mg/kg oral) does the source give for `CCCC(N)(CCC)C(C)(C)C` [Compound 20, 1-n-Propyl-1-tert-butyl-n-butylamine] here?
A: 2 (50% inhibition of catationia in comprison with the controls (namely a score of 5 per studied batch))

Q: And the “Inhibition of the neuroleptic-induced catatonia” value ([2]; 50 mg/kg oral)?
A: 1 (20 to 30% inhibition of catatonia in comparison with the controls (namely a score of 7 to 8 per studied batch))

Q: What does the source list for `CCCCC(N)(CC)CCC` (stereo not drawn) [Compound 4, 1-Ethyl-1-n-propyl-n-pentylamine]?
A: Inhibition of reserpine-induced catatonia ([1]; 20 mg/kg oral): 3 (70 to 80% inhibition of catatonia in comparison with the controls (namely a score of 2 or 3 per studied batch)); Inhibition of the neuroleptic-induced catatonia ([2]; 20 mg/kg oral): 3 (70 to 80% inhibition of catatonia in comparison with the controls (namely a score of 2 or 3 per studied batch))

Q: Which results are given for `CCCC(N)(CC)CC(C)C` (stereo not drawn) [Compound 3, 1-Ethyl-1-isobutyl-n-butylamine]?
A: Inhibition of reserpine-induced catatonia ([1]; 20 mg/kg oral): 3 (70 to 80% inhibition of catatonia in comparison with the controls (namely a score of 2 or 3 per studied batch)); Inhibition of the neuroleptic-induced catatonia ([2]; 20 mg/kg oral): 3 (70 to 80% inhibition of catatonia in comparison with the controls (namely a score of 2 or 3 per studied batch))

Q: With `CCC=CC(N)(CC)CC` [Compound 23, 1,1-Diethyl-2-penten-1-ylamine] as the compound, how does the “Inhibition of reserpine-induced catatonia” value ([1]; 60 mg/kg oral) read?
A: 1 (20 to 30% inhibition of catatonia in comparison with the controls (namely a score of 7 to 8 per studied batch))

Q: What about the “Inhibition of the neuroleptic-induced catatonia” value ([2]; 30 mg/kg oral) of the same compound?
A: 1 (20 to 30% inhibition of catatonia in comparison with the controls (namely a score of 7 to 8 per studied batch))

Q: Which results are given for `CCCC(N)(CC)CC` [Compound 14, 1,1-Diethyl-n-butylamine]?
A: Inhibition of reserpine-induced catatonia ([1]; 50 mg/kg oral): 3 (70 to 80% inhibition of catatonia in comparison with the controls (namely a score of 2 or 3 per studied batch)); Inhibition of the neuroleptic-induced catatonia ([2]; 50 mg/kg oral): 3 (70 to 80% inhibition of catatonia in comparison with the controls (namely a score of 2 or 3 per studied batch))

Q: Which results are given for `CCCC(CC)CC(C)(C)N` (stereo not drawn) [Compound 17, 1,1-Dimethyl-3-ethyl-n-hexylamine]?
A: Inhibition of reserpine-induced catatonia ([1]; 11 mg/kg oral): 1 (20 to 30% inhibition of catatonia in comparison with the controls (namely a score of 7 to 8 per studied batch)); Inhibition of the neuroleptic-induced catatonia ([2]; 11 mg/kg oral): 2 (50% inhibition of catationia in comprison with the controls (namely a score of 5 per studied batch))

Q: With `CCC=CC(N)(CCC)CCC` [Compound 25, 1,1-Di-n-propyl-2-penten-1-ylamine] as the compound, how does the “Inhibition of reserpine-induced catatonia” value ([1]; 6 mg/kg oral) read?
A: 3 (70 to 80% inhibition of catatonia in comparison with the controls (namely a score of 2 or 3 per studied batch))

Q: What about the “Inhibition of the neuroleptic-induced catatonia” value ([2]; 6 mg/kg oral) of the same compound?
A: 3 (70 to 80% inhibition of catatonia in comparison with the controls (namely a score of 2 or 3 per studied batch))

Q: `CCCC(N)(CCC)CCC` was tested. Which “score, reserpine-induced catatonia” value ([1]; 3 mg/kg) did it give?
A: 4 (100% inhibition of catatonia in comparison with the controls (namely a score of 0 per studied batch))

Q: And the “score, neuroleptic-induced catatonia” value ([2]; 3 mg/kg)?
A: 4 (100% inhibition of catatonia in comparison with the controls (namely a score of 0 per studied batch))

Q: What does the source list for `CCCCCCCC(C)(C)N` [Compound 10, 1,1-Dimethyl-n-octylamine]?
A: Inhibition of reserpine-induced catatonia ([1]; 20 mg/kg oral): 1 (20 to 30% inhibition of catatonia in comparison with the controls (namely a score of 7 to 8 per studied batch)); Inhibition of the neuroleptic-induced catatonia ([2]; 50 mg/kg oral): 1 (20 to 30% inhibition of catatonia in comparison with the controls (namely a score of 7 to 8 per studied batch))

Q: How did the “Inhibition of reserpine-induced catatonia” value ([1]; 6 mg/kg oral) turn out when `CCCC(N)(CCC)C(C)C` [Compound 19, 1-n-Propyl-1-isopropyl-n-butylamine] was run?
A: 3 (70 to 80% inhibition of catatonia in comparison with the controls (namely a score of 2 or 3 per studied batch))

Q: What about the “Inhibition of the neuroleptic-induced catatonia” value ([2]; 6 mg/kg oral) of the same compound?
A: 3 (70 to 80% inhibition of catatonia in comparison with the controls (namely a score of 2 or 3 per studied batch))

Q: Which results are given for `CCCC(C)CC(C)(N)CC` (stereo not drawn) [Compound 7, 1,3-Dimethyl-1-ethyl-n-hexylamine]?
A: Inhibition of reserpine-induced catatonia ([1]; 20 mg/kg oral): 1 (20 to 30% inhibition of catatonia in comparison with the controls (namely a score of 7 to 8 per studied batch)); Inhibition of the neuroleptic-induced catatonia ([2]; 40 mg/kg oral): 1 (20 to 30% inhibition of catatonia in comparison with the controls (namely a score of 7 to 8 per studied batch))

Q: How did the “Inhibition of reserpine-induced catatonia” value ([1]; 20 mg/kg oral) turn out when `CCCCC(C)(N)CC(C)C` (stereo not drawn) [Compound 8, 1-Methyl-1-isobutyl-n-pentylamine] was run?
A: 1 (20 to 30% inhibition of catatonia in comparison with the controls (namely a score of 7 to 8 per studied batch))

Q: What about the “Inhibition of the neuroleptic-induced catatonia” value ([2]; 50 mg/kg oral) of the same compound?
A: 4 (100% inhibition of catatonia in comparison with the controls (namely a score of 0 per studied batch))

Q: What about the “activity compared with amantadine, neuroleptic-induced catatonia” value [2] of the same compound?
A: twice as active

Q: Which results are given for `CCC#CC(N)(CC)CC` [Compound 22, 1,1-Diethyl-2-pentyn-1-ylamine]?
A: Inhibition of reserpine-induced catatonia ([1]; 60 mg/kg oral): 1 (20 to 30% inhibition of catatonia in comparison with the controls (namely a score of 7 to 8 per studied batch)); Inhibition of the neuroleptic-induced catatonia ([2]; 30 mg/kg oral): 1 (20 to 30% inhibition of catatonia in comparison with the controls (namely a score of 7 to 8 per studied batch))

Q: Which “Inhibition of reserpine-induced catatonia” value ([1]; 20 mg/kg oral) does the source give for `CCC#CC(N)(CCC)CCC` [Compound 24, 1,1-Di-n-propyl-2-pentyn-1-ylamine] here?
A: 1 (20 to 30% inhibition of catatonia in comparison with the controls (namely a score of 7 to 8 per studied batch))

Q: What about the “Inhibition of the neuroleptic-induced catatonia” value ([2]; 20 mg/kg oral) of the same compound?
A: 2 (50% inhibition of catationia in comprison with the controls (namely a score of 5 per studied batch))

Q: Which “Inhibition of reserpine-induced catatonia” value ([1]; 50 mg/kg oral) does the source give for `CCC(N)(CC)CC` [Compound 15, 1,1-Diethyl-n-propylamine] here?
A: 1 (20 to 30% inhibition of catatonia in comparison with the controls (namely a score of 7 to 8 per studied batch))

Q: And the “Inhibition of the neuroleptic-induced catatonia” value ([2]; 50 mg/kg oral)?
A: 3 (70 to 80% inhibition of catatonia in comparison with the controls (namely a score of 2 or 3 per studied batch))
